US6989443B2, “Carboranylporphyrins and uses thereof” (Brookhaven Science Associates, LLC, priority 2004, dated 2006)

Legend:
malignant brain tumors = conditions: in vivo; cited from earlier work
EMT-6 mammary carcinomas = assay: Biodistribution of porphyrin IX in mice bearing EMT-6 carcinomas (tissue boron analyses); format: in vivo, BALB/c mice; conditions: for Average boron concentration, Blood / Average boron concentration, Brain / Average boron concentration, EMT-6 Tumor / Average boron concentration, Liver: 87 mg/kg (30 mg B/kg) in 3 i.p. injections over 8 hours, n = 5
Experimental: (§1) BALB/c mice bearing subcutaneously implanted EMT-6 mammary carcinomas implanted on the dorsal thorax were given a total dose of 87 milligrams porphyrin compound (IX) per kilogram body weight (30 mg B/kg) in 3 intraperitoneal (i.p.) injections over a period of 8 hours. At two and four days after the last injection, mice were euthanized, and tumor, blood, brain, and liver were removed for boron analyses. The blood was first analyzed for hematologic parameters that indicate toxicity before it was analyzed for boron.

[1] = Weight changes and hematologic parameters from porphyrin (IX) in mice; conditions: for % Weight change / Granulocytes / Lymphocytes / Platelets: median (and range)
Experimental: as §1

[2] = 2 days after last injection, 87 mg/kg (30 mg B/kg)
[3] = 4 days after last injection, 87 mg/kg (30 mg B/kg)

For `N[C@@H](Cc1ccc(B(O)O)cc1)C(=O)O` [BPA, p-boronophenylalanine], the chemical toxicity (malignant brain tumors) is listed as “low chemical toxicity”.

In the case of “Copper meso-5,10,15,20-tetrakis[3-(3,5-o-dicarboranyl methoxybenzyloxy)phenyl]porphyrin [Porphyrin compound (IX)]”, the “Average boron concentration, Blood” value (EMT-6 mammary carcinomas; 2 days after last injection) is reported as 0.5 ± 0.2 μg B/g, the “Average boron concentration, Brain” value (EMT-6 mammary carcinomas; 2 days after last injection) is reported as 0.2 ± 0.0 μg B/g and the “Average boron concentration, EMT-6 Tumor” value (EMT-6 mammary carcinomas; 2 days after last injection) is reported as 43.5 ± 10.0 μg B/g. The “Average boron concentration, Liver” value (EMT-6 mammary carcinomas; 2 days after last injection) was 353 ± 55 μg B/g, the “Average boron concentration, Blood” value (EMT-6 mammary carcinomas; 4 days after last injection) was 0.2 ± 0.1 μg B/g and the “Average boron concentration, Brain” value (EMT-6 mammary carcinomas; 4 days after last injection) was 0.3 ± 0.2 μg B/g. The “Average boron concentration, EMT-6 Tumor” value (EMT-6 mammary carcinomas; 4 days after last injection) was 27.8 ± 7.6 μg B/g, the “Average boron concentration, Liver” value (EMT-6 mammary carcinomas; 4 days after last injection) was 250 ± 70 μg B/g and the “tumor to brain boron ratio” value (EMT-6 mammary carcinomas; EMT-6 tumor-bearing mice, compared with tumor to blood ratio) was “even higher”. The “tumor boron concentrations, adequacy for therapy” value (EMT-6 mammary carcinomas; particularly at the two-day time-point) was “adequate for therapy”, the “weight change compared to solvent-injected mice” value ([1]; 87 mg/kg (30 mg B/kg)) was “no differences between porphyrin- and solvent-injected mice” and the “platelet count compared to solvent-only mice” value ([1]; 2-day time point) was “small but significant decrease”. The “platelet count compared to solvent-only group” value ([1]; 4-day time point) was “rebounded to a level greater than those from the solvent-only group”, the “% Weight change” value [1, 2] was 0.4 (−4.9–2.5) % and the Granulocytes [1, 2] was 53 (42–60) % WBC. For the same molecule, the Lymphocytes [1, 2] was 44 (37–56) % WBC, the Platelets [1, 2] was 193 (51–432) 10^3/mm^3 and the “% Weight change” value [1, 3] was −0.6 (−4.7–1.5) %. For the same molecule, the Granulocytes [1, 3] was 62 (57–67) % WBC, the Lymphocytes [1, 3] was 35 (30–39) % WBC and the Platelets [1, 3] was 917 (670–1128) 10^3/mm^3.
